Experimental data taken from patent US20100144819A1, “Synergistic Methods for Control of Pests” (FMC A[…]. LTD., priority 2008, published 2010).

Columns and labels:
[1] = tested on: German cockroach (Blatella germanica); assay: German cockroach mortality on treated filter paper; format: in vivo, Blattella germanica; details: 24 h
Excerpt: (§1) The presence of a synergistic effect between the two active ingredients is established with the aid of the Colby equation (see Colby, S. R., “Calculating Synergistic and Antagonistic Responses of Herbicide Combinations”, Weeds 1967, 15, pg 20-22): E=X+Y−(XY/100).
(§2) Using the method of Colby, the presence of asynergistic interaction between two active ingredients is established by first calculating the expected activity, ‘E’, of the mixture based on activities of the two components applied alone. If ‘E’ is lower than the observed activity, synergy is present. In the equation above, ‘X’ is the percentage control observed when bifenthrin applied alone at rate ‘x’. The ‘Y’ term is percentage control observed when fipronil applied alone at rate ‘y’. The equation calculates ‘E’, the expected activity of the mixture of ‘X’ at rate ‘x’ with ‘Y’ at rate ‘y’ if their effects are strictly additive and no interaction has occurred.
The compositions of the present invention were tested for German cockroach (Blatella germanica) activity in the following manner.
Test solutions were made by dissolving technical grade bifenthrin and fipronil in acetone to provide appropriate rates of application of bifenthrin and fipronil alone, as well as combinations of bifenthrin and fipronil. The active ingredient concentrations tested were from 50 parts per million (0.05 mg of active ingredient/mL or 0.05 g/L) to 500 parts per million (0.5 mg of active ingredient/mL or 0.5 g/L), four replicates per rate. In a fume cabinet, one milliliter of a test solution was applied to a 9 cm Whatman® 2 qualitative filter paper using a calibrated pipette. The application started at the center of the filter paper with individual drops being applied in an outward circular motion so that the entire filter paper was uniformly treated. Acetone only (one mL) was applied in the same manner to provide an untreated control (UTC). The treated filter papers were allowed to dry for two hours. The dried, treated or untreated filter paper was placed into a plastic Petri dish and ten late instar, healthy and active German cockroaches (Blattella germanica) were momentarily immobilized using carbon dioxide and then placed onto the filter paper. The lid of each Petri dish was put on to contain the cockroaches. The Petri dishes were maintained at a temperature of 25° C. to 30° C. at ambient relative humidity out of direct sunlight. German cockroach mortality was assessed after 24 hours by counting the number of alive and the number of knocked down/dead cockroaches.
(§3) In order to compare the pesticidal effectiveness of the individual and combination treatments the LC 50 and LC 90 values (lethal concentration in ppm that would effectively knock down/kill 50% or 90% of the test pests) were calculated. In calculating the LC values for the various mixtures of bifenthrin and fipronil, probit analysis was conducted on the fipronil concentration of the mixture. […] The values calculated from the data of Table 1 are in Table 1A below.

[2] = tested on: American cockroach (Periplaneta americana); assay: American cockroach mortality on treated filter paper; format: in vivo; details: 24 h
Excerpt: as §1, §2
The compositions of the present invention were tested for American cockroach (Periplaneta americana) activity in the following manner:
Test solutions were made by dissolving technical grade bifenthrin and fipronil in acetone to provide appropriate rates of application of bifenthrin and fipronil alone, as well as combinations of bifenthrin and fipronil. The active ingredient concentrations tested were from 10 part per million (0.01 mg of active ingredient/mL or 0.01 g/L) to 1000 parts per million (1.0 mg of active ingredient/mL or 1.0 g/L), four replicates per rate. In a fume cabinet, one milliliter of a test solution was applied to a 9 cm Whatman® 2 qualitative filter paper using a calibrated pipette. The application started at the center of the filter paper with individual drops being applied in an outward circular motion so that the entire filter paper was uniformly treated. Acetone only (one mL) was applied in the same manner to provide an untreated control (UTC). The treated filter papers were allowed to dry for two hours. The dried, treated or untreated filter paper was placed into a plastic cup having a base diameter of 90 mm, in which the upper portion of the walls of the plastic cup were coated with a fluoropolymer resin (PFTE-30) insect barrier (Fluoron® available from BioQuip Products Inc.) to prevent the insects from climbing out of the container. Ten late instar, healthy and active American cockroaches (Periplaneta americana) were momentarily immobilized using carbon dioxide and then placed onto the filter paper. The top of the plastic containers were covered with gauze to contain the cockroaches. The plastic containers were maintained at a temperature of 25° C. to 30° C. at ambient relative humidity out of direct sunlight. American cockroach mortality was assessed after 24 hours by counting the number of alive and the number of knocked down/dead cockroaches.
as §3, with “the bifenthrin in” for “the fipronil”, “Table 2” for “Table 1”, “Table 2A” for “Table 1A”

[3] = tested on: black house spider (Badumna insignis); assay: Black house spider mortality on treated pine plywood; format: in vivo; details: suspension concentrate diluted in water, 24 h
Excerpt: as §1, §2
The compositions of the present invention were tested for black house spider (Badumna insignis) activity in the following manner:
Formulations of the test compounds were made as follows: • 1).
The testing was conducted on pine plywood surfaces that had dimensions of 20 cm×20 cm. The above formulations were diluted in water to achieve the desired concentration rate in grams of active ingredient per liter prior to application to the pine plywood. Each treatment was applied using an airbrush sprayer and compressed air as the propellant. The equipment was calibrated prior to use and the treatments were applied to the pine plywood surfaces at a rate of 1 L/10 m^2 (4 mL of final test solution per 20 cm×20 cm pine plywood surface)'. For example, in order to obtain a application rate of […] of active ingredient per 10 m^2, 1.25 mL of the fipronil formulation 1) which contained 100 gram per liter suspension concentrate formulation of fipronil, was diluted in 1 liter of water to make a final test solution. Four mL of the final test solution was sprayed onto the pine plywood surface. The treated pine plywood was allowed to air dry at ambient temperature by storing horizontally away from direct sunlight. Three black house spiders, medium to large in size collected from the field 1 to 2 days prior to testing, were placed separately under untreated portion cups (7 cm diameter by 7 cm deep) on the treated pine plywood surfaces. The untreated portion cups provided an opportunity for the spiders to seek an untreated area. The spiders were assessed after 24 hours exposure by counting the number of alive and the number of knocked down/dead spiders. There were three replications of each treatment.

[4] = probit analysis of Table 1 data, mixtures as bifenthrin:fipronil
[5] = probit analysis of Table 2 data, mixtures as bifenthrin:fipronil

`Cc1c(COC(=O)[C@@H]2[C@H](/C=C(\Cl)C(F)(F)F)C2(C)C)cccc1-c1ccccc1` (racemic) [Bifenthrin, 2-methylbiphenyl-3-ylmethyl (Z)-(1RS)-cis-3-(2-chloro-3,3,3-trifluoroprop-1-enyl)-2,2-dimethylcyclopropanecarboxylate] was tested, and the “% Observed Control” value ([1]; 100 ppm (0.1 mg/mL)) was 2.5%, the “Mortality Rep 1 dead/alive” value ([1]; 100 ppm (0.1 mg/mL)) was 0/10 and the “Mortality Rep 2 dead/alive” value ([1]; 100 ppm (0.1 mg/mL)) was 0/10. For the same compound, the “Mortality Rep 3 dead/alive” value ([1]; 100 ppm (0.1 mg/mL)) was 0/10, the “Mortality Rep 4 dead/alive” value ([1]; 100 ppm (0.1 mg/mL)) was 1/9 and the “% Observed Control” value ([1]; 250 ppm (0.25 mg/mL)) was 90%. For the same compound, the “Mortality Rep 1 dead/alive” value ([1]; 250 ppm (0.25 mg/mL)) was 9/1, the “Mortality Rep 2 dead/alive” value ([1]; 250 ppm (0.25 mg/mL)) was 9/1 and the “Mortality Rep 3 dead/alive” value ([1]; 250 ppm (0.25 mg/mL)) was 9/1. For the same compound, the “Mortality Rep 4 dead/alive” value ([1]; 250 ppm (0.25 mg/mL)) was 9/1, the “% Observed Control” value ([1]; 500 ppm (0.5 mg/mL)) was 97.5% and the “Mortality Rep 1 dead/alive” value ([1]; 500 ppm (0.5 mg/mL)) was 10/0. For the same compound, the “Mortality Rep 2 dead/alive” value ([1]; 500 ppm (0.5 mg/mL)) was 10/0, the “Mortality Rep 3 dead/alive” value ([1]; 500 ppm (0.5 mg/mL)) was 10/0 and the “Mortality Rep 4 dead/alive” value ([1]; 500 ppm (0.5 mg/mL)) was 9/1. For the same compound, the “LC 50” value [1, 4] was 193 ppm, the “LC 90” value [1, 4] was 301 ppm and the “% Observed Control” value ([2]; 100 ppm (0.1 mg/mL)) was 2.5%. The “Mortality Rep 1 dead/alive” value ([2]; 100 ppm (0.1 mg/mL)) was 1/9, the “Mortality Rep 2 dead/alive” value ([2]; 100 ppm (0.1 mg/mL)) was 0/10 and the “Mortality Rep 3 dead/alive” value ([2]; 100 ppm (0.1 mg/mL)) was 0/10. The “Mortality Rep 4 dead/alive” value ([2]; 100 ppm (0.1 mg/mL)) was 0/10, the “% Observed Control” value ([2]; 125 ppm (0.125 mg/mL)) was 45% and the “Mortality Rep 1 dead/alive” value ([2]; 125 ppm (0.125 mg/mL)) was 1/9. For the same compound, the “Mortality Rep 2 dead/alive” value ([2]; 125 ppm (0.125 mg/mL)) was 10/0, the “Mortality Rep 3 dead/alive” value ([2]; 125 ppm (0.125 mg/mL)) was 7/3 and the “Mortality Rep 4 dead/alive” value ([2]; 125 ppm (0.125 mg/mL)) was 0/10. The “% Observed Control” value ([2]; 200 ppm (0.2 mg/mL)) was 10%, the “Mortality Rep 1 dead/alive” value ([2]; 200 ppm (0.2 mg/mL)) was 0/10 and the “Mortality Rep 2 dead/alive” value ([2]; 200 ppm (0.2 mg/mL)) was 0/10. The “Mortality Rep 3 dead/alive” value ([2]; 200 ppm (0.2 mg/mL)) was 0/10, the “Mortality Rep 4 dead/alive” value ([2]; 200 ppm (0.2 mg/mL)) was 4/6 and the “% Observed Control” value ([2]; 250 ppm (0.25 mg/mL)) was 12.5%. The “Mortality Rep 1 dead/alive” value ([2]; 250 ppm (0.25 mg/mL)) was 1/9, the “Mortality Rep 2 dead/alive” value ([2]; 250 ppm (0.25 mg/mL)) was 1/9 and the “Mortality Rep 3 dead/alive” value ([2]; 250 ppm (0.25 mg/mL)) was 2/8. The “Mortality Rep 4 dead/alive” value ([2]; 250 ppm (0.25 mg/mL)) was 1/9, the “% Observed Control” value ([2]; 400 ppm (0.4 mg/mL)) was 22.5% and the “Mortality Rep 1 dead/alive” value ([2]; 400 ppm (0.4 mg/mL)) was 1/9. For the same compound, the “Mortality Rep 2 dead/alive” value ([2]; 400 ppm (0.4 mg/mL)) was 2/8, the “Mortality Rep 3 dead/alive” value ([2]; 400 ppm (0.4 mg/mL)) was 4/6 and the “Mortality Rep 4 dead/alive” value ([2]; 400 ppm (0.4 mg/mL)) was 2/8. For the same compound, the “% Observed Control” value ([2]; 500 ppm (0.5 mg/mL)) was 25%, the “Mortality Rep 1 dead/alive” value ([2]; 500 ppm (0.5 mg/mL)) was 0/10 and the “Mortality Rep 2 dead/alive” value ([2]; 500 ppm (0.5 mg/mL)) was 5/5. For the same compound, the “Mortality Rep 3 dead/alive” value ([2]; 500 ppm (0.5 mg/mL)) was 2/8, the “Mortality Rep 4 dead/alive” value ([2]; 500 ppm (0.5 mg/mL)) was 3/7 and the “% Observed Control” value ([2]; 1000 ppm (1.0 mg/mL)) was 97.5%. The “Mortality Rep 1 dead/alive” value ([2]; 1000 ppm (1.0 mg/mL)) was 10/0, the “Mortality Rep 2 dead/alive” value ([2]; 1000 ppm (1.0 mg/mL)) was 10/0 and the “Mortality Rep 3 dead/alive” value ([2]; 1000 ppm (1.0 mg/mL)) was 10/0. For the same compound, the “Mortality Rep 4 dead/alive” value ([2]; 1000 ppm (1.0 mg/mL)) was 9/1, the “LC 50” value [2, 5] was 906 ppm and the “LC 90” value [2, 5] was 1618 ppm. The “Observed % Control” value ([3]; 0.25 g ai/L at 1 L/10 m^2) was 88.9% and the “Observed % Control” value ([3]; 0.5 g ai/L at 1 L/10 m^2) was 88.9%.
